Source: US4876277A, “Antimicrobial/antifungal compositions” (Plant Cell Research Institute, Inc., priority 1987, dated 1989)
Values after ≈ are worked out from the molar mass of the structure shown. Read-outs that look alike come from different tables or passages of the source.

Legend:
[1] = system: smartweed; test: herbicide screening: smartweed; details: in vivo
From the text: (§1) As noted above the compounds are ineffective as herbicides against one or more of the following weeds: average dicots, cocklebur, morning glory, pigweed, smartweed, velvet leaf, average monocots, barnyard grass, green foxtail, johnson grass, yellow nutsedge and the wild oat in both pre-emergent and post-emergent screening tests, at application rates of 2 lbs/acre for Compound 4, and 4 lbs/acre for Compound 5.

[2] = system: Cladosporium herbarum; test: ED50 on fungi, mycelial growth on V-8 juice agar: Cladosporium herbarum; assay type: cell-based; details: Example 2, 72 hrs, read-out: ED50 concentration, CH
[3] = system: green foxtails; test: herbicide screening: green foxtails; details: in vivo
From the text: as §1

[4] = system: Xanthomonas campestris pv. carotae; test: ED50 on bacteria, liquid nutrient medium: X. campestris pv. carotae; assay type: cell-based; details: 48 h, read-out: ED50 concentration, X.C. pv. carotae
[5] = system: average dicots; test: herbicide screening: average dicots; details: in vivo
From the text: as §1

[6] = system: wild oat; test: herbicide screening: wild oat; details: in vivo
From the text: as §1

[7] = system: cockleburr; test: herbicide screening: cocklebur; details: in vivo
From the text: as §1

[8] = system: morning glory; test: herbicide screening: morning glory; details: in vivo
From the text: as §1

[9] = system: Pyrenochaeta terrestris; test: ED50 on fungi, mycelial growth on V-8 juice agar: Pyrenochaeta terrestris; assay type: cell-based; details: Setophoma terrestris, Example 5, 72 hrs, read-out: ED50 concentration, PT
[10] = system: Erysiphe graminis; test: in vivo fungicide screen: wheat powdery mildew (WPM); details: for % compared to control, WPM: 100 ppm, foliar spray before infection
[11] = system: Alternaria chrysanthemi; test: ED50 on fungi, mycelial growth on V-8 juice agar: Alternaria chrysanthemi; assay type: cell-based; details: Example 6, 72 hrs, read-out: ED50 concentration, AC
[12] = system: johnson grass; test: herbicide screening: johnson grass; details: in vivo
From the text: as §1

[13] = system: Puccinia recondita; test: in vivo fungicide screen: wheat leaf rust (WLR); details: for % compared to control, WLR: 100 ppm, foliar spray before infection
[14] = system: Xanthomonas campestris pv. campestris; test: ED50 on bacteria, liquid nutrient medium: X. campestris pv. campestris; assay type: cell-based; details: 48 h, Example 7, two days, read-out: ED50 concentration, X.C. pv. campestris
[15] = system: haploid lab strain from Yeast I; test: ED50 on yeast, liquid nutrient medium: Yeast II; assay type: cell-based; details: Saccharomyces cerevisiae, 48 h, read-out: ED50 concentration, Yeast-II
[16] = system: Alternaria brassicicola; test: ED50 on fungi, mycelial growth on V-8 juice agar: Alternaria brassicicola; assay type: cell-based; details: Example 4, 72 hrs, read-out: ED50 concentration, AB
[17] = system: barnyard grass; test: herbicide screening: barnyard grass; details: in vivo
From the text: as §1

[18] = system: weeds; test: pre-emergent and post-emergent herbicide screening tests; assay type: in vivo
From the text: as §1

[19] = system: Saccharomyces cerevisiae from Universal Foods; test: ED50 on yeast, liquid nutrient medium: Yeast I; assay type: cell-based; details: 48 h, read-out: ED50 concentration, Yeast-I
[20] = system: yellow nutsedge; test: herbicide screening: yellow nutsedge; details: in vivo
From the text: as §1

[21] = system: average monocots; test: herbicide screening: average monocots; details: in vivo
From the text: as §1

[22] = system: Piricularia oryzae; assay type: in vivo
[23] = system: Pellicularia filamentosa; test: in vivo fungicide screen: rice sheath blight (RSB); details: for % compared to control, RSB: 100 ppm, foliar spray before infection
[24] = system: Rhizobium japonicum; test: ED50 on bacteria, liquid nutrient medium: Rhizobium japonicum; assay type: cell-based; details: Bradyrhizobium japonicum, 48 h, Example 10, two days, read-out: ED50 concentration, RJ
[25] = system: velvet leaf; test: herbicide screening: velvet leaf; details: in vivo
From the text: as §1

[26] = system: Pseudoperonospora cubensis; test: in vivo fungicide screen: cucumber downy mildew (CDM); details: for % compared to control, CDM: 100 ppm, foliar spray before infection
[27] = system: pigweed; test: herbicide screening: pigweed; details: in vivo
From the text: as §1

[28] = system: Helminthosporium carbonum; test: ED50 on fungi, mycelial growth on V-8 juice agar: Helminthosporium carbonum; assay type: cell-based; details: Bipolaris zeicola, Example 3, 72 hrs, read-out: ED50 concentration, HC
[29] = system: Phytophtora infestans; assay type: in vivo
[30] = system: Agrobacterium tumefaciens; test: ED50 on bacteria, liquid nutrient medium: Agrobacterium tumefaciens; assay type: cell-based; details: 48 h, Example 9, two days, read-out: ED50 concentration, AT
[31] = system: cockroaches; details: in vivo; cited from earlier work
[32] = system: houseflies; details: in vivo; cited from earlier work
[33] = system: flour beetles; details: in vivo; cited from earlier work
[34] = system: fish; details: in vivo; cited from earlier work
[35] = system: apples; details: in vivo; cited from earlier work
[36] = system: two-spotted spider mite; test: insecticide activity: two-spotted spider mite; assay type: in vivo; details: 150 to 600 ppm
[37] = system: southern root knot nematode; test: insecticide activity: southern root knot nematode; assay type: in vivo; details: 150 to 600 ppm
[38] = system: southern armyworm; test: insecticide activity: southern armyworm; assay type: in vivo; details: 150 to 600 ppm
[39] = system: signal grass; test: herbicide screening: signal grass; details: in vivo
[40] = system: southern corn rootworm; test: insecticide activity: southern corn rootworm; assay type: in vivo; details: 150 to 600 ppm
[41] = system: mexican bean beetle; test: insecticide activity: mexican bean beetle; assay type: in vivo; details: 150 to 600 ppm
[42] = system: Xanthomonas campestris; test: activity on Xanthomonas campestris; assay type: cell-based
[43] = system: green peach aphid; test: insecticide activity: green peach aphid; assay type: in vivo; details: 150 to 600 ppm
[44] = 100 ppm, foliar spray before infection

C=CCc1cc(OC)c(OC)c2c1OCO2 [Compound 5, 4,5-dimethoxy-2,3-methylenedioxy-1-allyl benzene]
herbicide effect, smartweed [1]: ineffective
IC50 [2]: 16 µg/mL (≈ 72 µM)
herbicide effect, green foxtails [3]: ineffective
IC50 [4]: 10 µg/mL (≈ 45 µM)
herbicide effect, average dicots [5]: ineffective
herbicide effect, wild oat [6]: ineffective
herbicide effect, cockleburr [7]: ineffective
herbicide effect, morning glory [8]: ineffective
IC50 [9]: 10 µg/mL (≈ 45 µM)
% compared to control, WPM [10]: 95%
IC50 [11]: 10 µg/mL (≈ 45 µM)
herbicide effect, johnson grass [12]: ineffective
% compared to control, WLR [13]: 0%
effectiveness against wheat leaf rust ([13]; in vivo): substantially ineffective
IC50 [14]: 10 µg/mL (≈ 45 µM)
IC50 [15]: > 500 µg/mL
IC50 [16]: 8 µg/mL (≈ 36 µM)
herbicide effect, barnyard grass [17]: ineffective
herbicide effect against one or more of the listed weeds ([18]; 4 lbs/acre): ineffective
IC50 [19]: > 500 µg/mL
herbicide effect, yellow nutsedge [20]: ineffective
herbicide effect, average monocots [21]: ineffective
% compared to control, RB ([22]; in vivo): 0%
effectiveness against rice blast ([22]; in vivo): substantially ineffective
% compared to control, RSB [23]: 0%
effectiveness against rice sheath blight ([23]; in vivo): substantially ineffective
IC50 [24]: > 500 µg/mL
herbicide effect, velvet leaf [25]: ineffective
% compared to control, CDM [26]: 0%
effectiveness against cucumber downy mildew ([26]; in vivo): substantially ineffective
herbicide effect, pigweed [27]: ineffective
IC50 [28]: 16 µg/mL (≈ 72 µM)
% compared to control, TLB ([29]; in vivo): 0%
effectiveness against tomato leaf blight ([29]; in vivo): substantially ineffective
IC50 [30]: > 200 µg/mL

CCCc1cc2c(c(OC)c1OC)OCO2 [propyl analog of dillapiole]
synergic with pyrethrins against cockroaches [31]: effective synergic
synergic with pyrethrins against houseflies [32]: effective synergic
synergic with pyrethrins against flour beetles [33]: effective synergic

C=CCOC1=NS(=O)(=O)c2ccccc21 [ORYZEMATE]
activity preventing infection of wheat by Erysiphe graminis ([10]; at up to 300 ppm): 0%

CCOP(=O)(Sc1ccccc1)Sc1ccccc1 [EDIFENPHOS, O-ethyl-S,S-diphenyl-dithiophosphate]
activity preventing infection of wheat by Erysiphe graminis ([10]; in the range of 75-300 ppm): 100%
toxicity to fish [34]: toxic to fish

CC(C)OC(=O)C(C(=O)OC(C)C)=C1SCCS1 [FUJI-ONE, diissopropyl-1,3-dithiolau-2-ylidane malonate]
activity preventing infection of wheat by Erysiphe graminis ([10]; at up to 300 ppm): 0%

MANCOZEB
activity preventing infection of wheat by Erysiphe graminis ([10]; at up to 300 ppm): 0%

CCCCNC(=O)n1c(NC(=O)OC)nc2ccccc21 [BENOMYL, methyl 1-(butylcarbamoyl)-2-benzimidazolecarbonate]
activity preventing infection of wheat by Erysiphe graminis ([10]; in the range of 38-300 ppm): 100%
fruit finish of apples [35]: apples do not express fine fruit finish
toxicity to fish [34]: toxic to fish

CC(C)(C)C(=O)C(Oc1ccc(Cl)cc1)n1cncn1 (stereo not drawn) [BAYLETON]
activity preventing infection of wheat by Erysiphe graminis ([10]; in vivo): 100%
toxicity to fish [34]: toxic to fish

C=CCc1cc(OC)c(O)c2c1OCO2 [Compound 4, 6-methoxy-2,3-methylenedioxy-4-allyl phenol]
IC50 [2]: 16.5 µg/mL (≈ 79.2 µM)
herbicide effect, green foxtails [3]: ineffective
herbicide effect, average dicots [5]: ineffective
insecticide activity, two-spotted spider mite [36]: ineffective
IC50 [9]: 10 µg/mL (≈ 48 µM)
% compared to control, WPM [10]: 75%
insecticide activity, southern root knot nematode [37]: ineffective
IC50 [11]: 10 µg/mL (≈ 48 µM)
insecticide activity, southern armyworm [38]: ineffective
herbicide effect, signal grass [39]: ineffective
% compared to control, WLR [13]: 0%
IC50 [14]: 10 µg/mL (≈ 48 µM)
insecticide activity, southern corn rootworm [40]: ineffective
IC50 ([15]; Example 12, liquid medium, two days): > 500 µg/mL
IC50 [16]: 8 µg/mL (≈ 38.4 µM)
insecticide activity, mexican bean beetle [41]: ineffective
herbicide effect against one or more of the listed weeds ([18]; 2 lbs/acre): ineffective
effect on Xanthomonas campestris [42]: effective
IC50 ([19]; Example 11, liquid medium, two days): > 500 µg/mL
herbicide effect, average monocots [21]: ineffective
% compared to control, RB [22, 44]: 0%
% compared to control, RSB [23]: 0%
insecticide activity, green peach aphid [43]: ineffective
IC50 [24]: > 500 µg/mL
herbicide effect, velvet leaf [25]: ineffective
% compared to control, CDM [26]: 0%
herbicide effect, pigweed [27]: ineffective
IC50 [28]: 18 µg/mL (≈ 86.4 µM)
% compared to control, TLB [29, 44]: 0%
IC50 [30]: > 200 µg/mL
